Source: ChEMBL document CHEMBL5512695, “Discovery of N-Substituted Acetamide Derivatives as Promising P2Y14R Antagonists Using Molecular Hybridization Based on Crystallographic Overlay” (J Med Chem, 2024)

Experiments:
[1] = target: T1, P2Y purinoceptor 14 (Homo sapiens) (UniProt Q15391); conditions: time 30.0 min
T1 sequence (whole entry): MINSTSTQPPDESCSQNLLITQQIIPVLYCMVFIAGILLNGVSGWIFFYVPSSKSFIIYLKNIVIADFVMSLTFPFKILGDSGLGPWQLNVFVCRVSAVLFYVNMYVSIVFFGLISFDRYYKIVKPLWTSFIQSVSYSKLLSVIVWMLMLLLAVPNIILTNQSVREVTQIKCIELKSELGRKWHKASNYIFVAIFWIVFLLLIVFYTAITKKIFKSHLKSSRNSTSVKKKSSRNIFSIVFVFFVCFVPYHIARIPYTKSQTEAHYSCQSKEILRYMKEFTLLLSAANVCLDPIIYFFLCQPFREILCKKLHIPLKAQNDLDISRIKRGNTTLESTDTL

[2] = target: T2, P2Y purinoceptor 14 (Homo sapiens, UniProt Q15391); assay: Antagonist activity at human P2Y14R stably expressed in HEK293 cells assessed as inhibition of forskolin-[…] cAMP production incubated for 30 mins by cAMP-Glo assay; assay type: functional, cell-based
T2 sequence (Q15391 whole entry): T1 sequence (whole entry)

[3] = target: Cytochrome P450 3A4 (Homo sapiens, UniProt P08684); assay: Inhibition of CYP3A4 in human liver microsomes using midazolam as substrate preincubated for 10 mins followed by substrate addition measured after 30 mins by LC/MS analysis; assay type: ADME, Microsome
[4] = target: Cytochrome P450 2C9 (Homo sapiens, UniProt P11712); assay: Inhibition of CYP2C9 in human liver microsomes using diclofenac as substrate preincubated for 10 mins followed by substrate addition measured after 30 mins by LC/MS analysis; assay type: ADME, Microsome
[5] = Cmax in SD […] at 10 mg/kg, iv measured for 24 hrs; assay type: ADME, organism-based; conditions: in vivo
[6] = tested on: HUVEC; assay: Cytotoxicity against MSU/LPS-stimulated HUVEC cells assessed as decrease in cell viability at 256 uM incubated for 24 hrs by SRB assay; assay type: toxicity, cell-based; conditions: human
[7] = Stability in SGF assessed as half life; assay type: ADME
[8] = target: Voltage-gated inwardly rectifying potassium channel KCNH2 (Homo sapiens, UniProt Q12809); assay: Inhibition of hERG expressed in HEK293 by whole cell Q-patch analysis; assay type: toxicity, cell-based
[9] = AUC (0 to 24 hrs) in SD […] at 10 mg/kg, iv; assay type: ADME, organism-based; conditions: in vivo
[10] = target: P2Y purinoceptor 12 (Homo sapiens, UniProt Q9H244); assay: Inhibition of human P2Y12R stably expressed in 2-MeSADP -stimulated HEK293 cells incubated for 0.5 hrs by cAMP production assay; assay type: functional, cell-based
[11] = Tmax in SD […] at 10 mg/kg, iv measured for 24 hrs; assay type: ADME, organism-based; conditions: in vivo
[12] = tested on: HEK-293T; assay: Cytotoxicity against MSU/LPS-stimulated HEK293T cells assessed as decrease in cell viability at 256 uM incubated for 24 hrs by SRB assay; assay type: toxicity, cell-based; conditions: human
[13] = Tmax in SD […] at 20 mg/kg, po measured for 24 hrs; assay type: ADME, organism-based; conditions: in vivo
[14] = target: Cytochrome P450 2C19 (Homo sapiens, UniProt P33261); assay: Inhibition of CYP2C19 in human liver microsomes using S-mephenytoin as substrate preincubated for 10 mins followed by substrate addition measured after 30 mins by LC/MS analysis; assay type: ADME, Microsome
[15] = Clearance in SD […] at 20 mg/kg, po measured for 24 hrs; assay type: ADME, organism-based; conditions: in vivo
[16] = AUC (0 to 24 hrs) in SD […] at 20 mg/kg, po; assay type: ADME, organism-based; conditions: in vivo
[17] = Clearance in SD […] at 10 mg/kg, iv measured for 24 hrs; assay type: ADME, organism-based; conditions: in vivo
[18] = Cmax in SD […] at 20 mg/kg, po measured for 24 hrs; assay type: ADME, organism-based; conditions: in vivo
[19] = Half life in SD […] at 10 mg/kg, iv measured for 24 hrs; assay type: ADME, organism-based; conditions: in vivo
[20] = target: T3, Cytochrome P450 1A2 (Homo sapiens, UniProt P05177); assay: Inhibition of CYP1A2 in human liver microsomes using phenacetin as substrate preincubated for 10 mins followed by substrate addition measured after 30 mins by LC/MS analysis; assay type: ADME, Microsome
T3 sequence (P05177 whole entry): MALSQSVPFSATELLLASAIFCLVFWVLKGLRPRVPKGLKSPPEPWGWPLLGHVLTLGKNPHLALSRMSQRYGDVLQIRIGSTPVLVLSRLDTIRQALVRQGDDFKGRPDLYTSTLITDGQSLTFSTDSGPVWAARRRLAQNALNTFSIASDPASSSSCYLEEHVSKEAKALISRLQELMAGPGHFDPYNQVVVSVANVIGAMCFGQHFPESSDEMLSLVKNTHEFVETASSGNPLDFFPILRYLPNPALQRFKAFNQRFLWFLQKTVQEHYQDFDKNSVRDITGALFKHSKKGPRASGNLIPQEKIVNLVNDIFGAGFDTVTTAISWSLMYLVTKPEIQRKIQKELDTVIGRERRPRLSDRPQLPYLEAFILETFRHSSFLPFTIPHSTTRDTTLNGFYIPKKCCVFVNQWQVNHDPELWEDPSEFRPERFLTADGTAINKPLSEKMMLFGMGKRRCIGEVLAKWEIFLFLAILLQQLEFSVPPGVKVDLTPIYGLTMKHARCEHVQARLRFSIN

[21] = Stability in SIF assessed as half life; assay type: ADME
[22] = Half life in SD […] at 20 mg/kg, po measured for 24 hrs; assay type: ADME, organism-based; conditions: in vivo
[23] = target: P2Y purinoceptor 6 (Homo sapiens, UniProt Q15077); assay: Inhibition of human P2Y6R stably expressed in UDP-stimulated HEK293 cells incubated for 0.5 hrs by IP3 production assay; assay type: functional, cell-based
[24] = target: Cytochrome P450 2D6 (Homo sapiens, UniProt P10635); assay: Inhibition of CYP2D6 in human liver microsomes using dextromethorphan as substrate preincubated for 10 mins followed by substrate addition measured after 30 mins by LC/MS analysis; assay type: ADME, Microsome
[25] = Stability in human liver microsomes assessed as half life measured for 45 mins by LC-MS/MS analysis; assay type: ADME, Microsome
[26] = Oral bioavailability in SD […] at 20 mg/kg measured for 24 hrs; assay type: ADME, organism-based; conditions: in vivo
[27] = HEK293, filed as antagonist, dose 100.0 nM

P2Y purinoceptor 6, sequence (Q15077 whole entry): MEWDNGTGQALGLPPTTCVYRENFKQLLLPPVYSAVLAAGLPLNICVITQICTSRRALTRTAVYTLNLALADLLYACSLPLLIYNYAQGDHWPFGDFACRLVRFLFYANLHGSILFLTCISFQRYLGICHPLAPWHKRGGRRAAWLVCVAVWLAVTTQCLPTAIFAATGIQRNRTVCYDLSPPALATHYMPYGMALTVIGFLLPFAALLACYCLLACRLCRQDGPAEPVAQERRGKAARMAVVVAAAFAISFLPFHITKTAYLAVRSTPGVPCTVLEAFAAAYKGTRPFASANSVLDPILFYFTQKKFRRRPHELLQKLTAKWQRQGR
Cytochrome P450 3A4, sequence (P08684 whole entry): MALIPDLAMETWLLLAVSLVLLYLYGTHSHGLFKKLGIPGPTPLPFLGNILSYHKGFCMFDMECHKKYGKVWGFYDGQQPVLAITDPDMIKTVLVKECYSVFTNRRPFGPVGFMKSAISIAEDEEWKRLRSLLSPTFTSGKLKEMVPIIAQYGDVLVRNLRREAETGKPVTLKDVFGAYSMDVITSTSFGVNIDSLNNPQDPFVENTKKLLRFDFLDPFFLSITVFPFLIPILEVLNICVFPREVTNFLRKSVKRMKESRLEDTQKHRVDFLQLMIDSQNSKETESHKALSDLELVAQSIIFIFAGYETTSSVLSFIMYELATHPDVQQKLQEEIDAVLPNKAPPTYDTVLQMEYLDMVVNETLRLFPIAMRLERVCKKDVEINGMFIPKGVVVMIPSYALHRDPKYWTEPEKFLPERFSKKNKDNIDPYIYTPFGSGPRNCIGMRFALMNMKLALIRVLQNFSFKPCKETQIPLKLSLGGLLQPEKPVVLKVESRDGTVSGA
P2Y purinoceptor 12, sequence (Q9H244 whole entry): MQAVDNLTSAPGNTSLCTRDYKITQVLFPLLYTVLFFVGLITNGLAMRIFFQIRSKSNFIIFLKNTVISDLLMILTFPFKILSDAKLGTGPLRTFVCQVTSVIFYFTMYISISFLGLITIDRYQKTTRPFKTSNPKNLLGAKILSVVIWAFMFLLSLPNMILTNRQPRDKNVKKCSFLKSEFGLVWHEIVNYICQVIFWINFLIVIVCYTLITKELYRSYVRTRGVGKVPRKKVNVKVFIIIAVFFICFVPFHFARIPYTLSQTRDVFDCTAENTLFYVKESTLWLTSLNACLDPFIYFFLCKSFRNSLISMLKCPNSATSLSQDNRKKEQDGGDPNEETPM
Cytochrome P450 2C19, sequence (P33261 whole entry): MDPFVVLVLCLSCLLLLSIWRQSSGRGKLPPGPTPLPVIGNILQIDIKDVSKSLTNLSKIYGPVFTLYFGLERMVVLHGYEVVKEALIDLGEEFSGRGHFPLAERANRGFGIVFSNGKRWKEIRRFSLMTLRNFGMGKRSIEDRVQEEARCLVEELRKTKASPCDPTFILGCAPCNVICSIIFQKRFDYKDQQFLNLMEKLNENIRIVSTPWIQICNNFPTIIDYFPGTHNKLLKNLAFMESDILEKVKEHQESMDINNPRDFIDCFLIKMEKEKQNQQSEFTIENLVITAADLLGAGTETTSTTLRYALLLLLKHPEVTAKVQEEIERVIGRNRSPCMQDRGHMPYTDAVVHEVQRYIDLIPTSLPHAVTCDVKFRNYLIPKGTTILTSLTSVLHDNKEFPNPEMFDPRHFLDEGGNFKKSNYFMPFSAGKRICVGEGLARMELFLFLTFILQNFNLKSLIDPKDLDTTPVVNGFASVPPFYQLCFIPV
Voltage-gated inwardly rectifying potassium channel KCNH2, sequence (Q12809 whole entry): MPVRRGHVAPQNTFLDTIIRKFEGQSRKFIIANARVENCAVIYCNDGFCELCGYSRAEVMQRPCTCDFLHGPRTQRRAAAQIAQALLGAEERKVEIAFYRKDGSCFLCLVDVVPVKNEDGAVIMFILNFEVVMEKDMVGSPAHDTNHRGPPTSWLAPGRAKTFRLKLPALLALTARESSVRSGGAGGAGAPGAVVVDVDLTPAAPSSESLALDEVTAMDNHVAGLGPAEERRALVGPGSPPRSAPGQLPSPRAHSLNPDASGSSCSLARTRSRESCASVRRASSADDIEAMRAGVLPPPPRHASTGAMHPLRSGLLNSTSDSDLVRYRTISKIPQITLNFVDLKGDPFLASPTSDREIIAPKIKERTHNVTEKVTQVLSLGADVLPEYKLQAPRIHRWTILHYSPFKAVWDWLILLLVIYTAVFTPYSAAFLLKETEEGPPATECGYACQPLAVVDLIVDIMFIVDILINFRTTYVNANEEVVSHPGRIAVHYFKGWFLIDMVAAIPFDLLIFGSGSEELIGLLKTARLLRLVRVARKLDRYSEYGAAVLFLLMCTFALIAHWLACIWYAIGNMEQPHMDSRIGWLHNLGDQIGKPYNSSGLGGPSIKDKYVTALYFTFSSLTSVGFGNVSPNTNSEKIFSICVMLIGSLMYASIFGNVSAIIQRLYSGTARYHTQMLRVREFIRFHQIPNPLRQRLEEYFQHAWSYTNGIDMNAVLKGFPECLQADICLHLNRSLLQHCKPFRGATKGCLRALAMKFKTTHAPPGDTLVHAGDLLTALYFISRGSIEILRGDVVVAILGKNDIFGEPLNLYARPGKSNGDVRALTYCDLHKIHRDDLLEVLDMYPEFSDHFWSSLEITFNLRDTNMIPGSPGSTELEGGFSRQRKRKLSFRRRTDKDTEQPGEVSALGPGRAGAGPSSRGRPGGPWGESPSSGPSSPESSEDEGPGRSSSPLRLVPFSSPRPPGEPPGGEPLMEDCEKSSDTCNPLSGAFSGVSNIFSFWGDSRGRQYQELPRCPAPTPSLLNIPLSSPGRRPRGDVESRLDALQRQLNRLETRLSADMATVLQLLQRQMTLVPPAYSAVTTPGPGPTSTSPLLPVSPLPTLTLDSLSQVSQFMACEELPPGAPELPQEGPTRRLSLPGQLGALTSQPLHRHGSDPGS
Cytochrome P450 2D6, sequence (P10635 whole entry): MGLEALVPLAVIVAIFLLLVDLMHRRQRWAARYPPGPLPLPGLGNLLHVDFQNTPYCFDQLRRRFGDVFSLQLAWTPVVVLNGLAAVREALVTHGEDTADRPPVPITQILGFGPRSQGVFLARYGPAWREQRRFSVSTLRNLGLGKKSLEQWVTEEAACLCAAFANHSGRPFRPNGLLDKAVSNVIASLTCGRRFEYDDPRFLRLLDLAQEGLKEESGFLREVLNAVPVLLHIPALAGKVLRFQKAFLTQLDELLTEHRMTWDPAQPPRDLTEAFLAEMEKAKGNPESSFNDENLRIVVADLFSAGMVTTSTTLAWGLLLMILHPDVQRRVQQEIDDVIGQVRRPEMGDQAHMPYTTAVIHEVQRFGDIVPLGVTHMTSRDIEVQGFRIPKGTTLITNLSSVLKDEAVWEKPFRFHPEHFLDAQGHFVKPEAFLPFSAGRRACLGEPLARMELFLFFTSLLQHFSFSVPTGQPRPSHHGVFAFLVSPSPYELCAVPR
Cytochrome P450 2C9, sequence (P11712 whole entry): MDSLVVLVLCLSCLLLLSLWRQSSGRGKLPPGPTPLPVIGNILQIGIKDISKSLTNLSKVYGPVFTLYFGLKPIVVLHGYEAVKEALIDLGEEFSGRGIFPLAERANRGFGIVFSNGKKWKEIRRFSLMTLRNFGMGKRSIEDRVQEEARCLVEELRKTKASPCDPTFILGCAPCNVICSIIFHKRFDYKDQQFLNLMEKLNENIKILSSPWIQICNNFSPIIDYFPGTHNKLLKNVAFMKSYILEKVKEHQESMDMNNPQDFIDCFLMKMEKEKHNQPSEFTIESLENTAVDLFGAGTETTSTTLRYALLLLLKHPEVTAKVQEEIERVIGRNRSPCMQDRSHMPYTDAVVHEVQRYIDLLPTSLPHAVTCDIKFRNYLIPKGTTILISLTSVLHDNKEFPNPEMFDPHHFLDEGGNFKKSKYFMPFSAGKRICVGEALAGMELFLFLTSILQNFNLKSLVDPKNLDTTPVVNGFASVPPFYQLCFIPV

SMILES: Cc1ccc(OCC(=O)Nc2ccc3ncsc3c2)cc1
- inhibition ([1]; HEK293, dose 100.0 nM): 17.9%

SMILES: O=C(COc1ccc(C(F)(F)F)cc1)Nc1ccc2cccnc2c1
- inhibition ([1]; HEK293, dose 100.0 nM): 38.3%

SMILES: Cc1ccc(OCC(=O)Nc2ccc3ncoc3c2)cc1
- inhibition ([1]; HEK293, dose 100.0 nM): 32%

SMILES: CC(C)c1ccc(OCC(=O)Nc2ccc3nc[nH]c3c2)cc1
- inhibition ([1]; HEK293, dose 100.0 nM): 21.8%

SMILES: O=C(COc1ccc(Br)cc1)Nc1ccc2cccnc2c1
- inhibition ([1]; HEK293, dose 100.0 nM): 15.2%

SMILES: O=Cc1ccc(OCC(=O)Nc2ccc3nc[nH]c3c2)cc1
- inhibition [1, 27]: 95.2%
- IC50 [2]: 1.3 nM

SMILES: COc1ccc(OCC(=O)Nc2ccc3nc[nH]c3c2)cc1
- inhibition ([1]; HEK293, dose 100.0 nM): 10.2%

SMILES: O=C(COc1ccc(CO)cc1)Nc1ccc2cccnc2c1
- inhibition ([1]; HEK293, dose 100.0 nM): 16.3%

SMILES: O=C(COc1ccc(Br)cc1)Nc1ccc2nc[nH]c2c1
- IC50 [3]: 19.6 µM
- IC50 [4]: > 50 µM
- Cmax [5]: 1530 ng/mL
- Activity [6]: Non-Toxic
- half-life [7]: > 3000 min
- IC50 [8]: > 50 µM
- AUC [9]: 1765 µg/L/h
- IC50 [10]: > 100 µM
- Tmax [11]: 18 min
- Activity [12]: Non-Toxic
- Tmax [13]: 32 min
- IC50 [14]: > 50 µM
- CL/F [15]: 14.8 mL/min/kg
- AUC [16]: 2845 µg/L/h
- clearance [17]: 3.5 mL/min/kg
- Cmax [18]: 2900 ng/mL
- half-life [19]: 456 min
- IC50 [20]: > 50 µM
- half-life [21]: > 300 min
- half-life [22]: 756 min
- IC50 [23]: 89.7 µM
- IC50 [24]: > 50 µM
- half-life [25]: 196 min
- bioavailability [26]: 75%

SMILES: Cc1ccc(OCC(=O)Nc2ccc3cc[nH]c3c2)cc1
- inhibition [1, 27]: 48.3%

SMILES: Cc1ccc(OCC(=O)Nc2ccc3cn[nH]c3c2)cc1
- inhibition ([1]; HEK293, dose 100.0 nM): 11.3%

SMILES: O=Cc1ccc(OCC(=O)Nc2ccc3cccnc3c2)cc1
- inhibition ([1]; HEK293, dose 100.0 nM): 17.6%

SMILES: Cc1ccc(OCC(=O)Nc2ccc3sccc3c2)cc1
- inhibition [1, 27]: 41.3%

SMILES: O=C(COc1ccc(Cl)cc1)Nc1ccc2cccnc2c1
- inhibition ([1]; HEK293, dose 100.0 nM): 12.1%
